BigSolDB 2.1

O=C(O)c1ccc(C(=O)O)o1
solubility (mole fraction)
Settings | in 1,2-dimethoxyethane | in 1,4-dioxane | in THF | in diglyme
293.15 K | – | – | 0.00772 | –
298.15 K | – | – | 0.00826 | –
303.15 K | 0.00344 | 0.00421 | 0.00884 | 0.00653
308.15 K | 0.00372 | 0.00458 | 0.00939 | 0.00704
313.15 K | 0.0039 | 0.00481 | 0.00998 | 0.00735
318.15 K | 0.0041 | 0.00521 | 0.0108 | 0.00767
323.15 K | 0.00432 | 0.00573 | 0.0116 | 0.00801
328.15 K | 0.00458 | 0.00631 | 0.0122 | 0.00842
333.15 K | 0.00487 | 0.00739 | 0.0128 | 0.00887
338.15 K | 0.00528 | 0.00827 | – | 0.00937
343.15 K | 0.00558 | 0.00886 | – | 0.00965
348.15 K | – | – | – | 0.0103
353.15 K | – | – | – | 0.0105
